≈ marks a conversion by molar mass, not a printed value.
How the values were obtained:
[1] = system: Mycobacterium tuberculosis; experiment: Antitubercular activity against Mycobacterium tuberculosis H37Rv MTCC 200 assessed as growth inhibition by BACTEC MGIT method; type: functional
[2] = system: Mycobacterium tuberculosis; experiment: Antitubercular activity against Mycobacterium tuberculosis H37Rv MTCC 200 assessed as growth inhibition at 6.25 ug/ml by BACTEC MGIT method; type: functional
[3] = system: Mycobacterium tuberculosis; experiment: Antitubercular activity against Mycobacterium tuberculosis H37Rv MTCC 200 assessed as growth inhibition at MIC by L.J. MIC method; type: functional
[4] = system: Streptococcus pyogenes; experiment: Antimicrobial activity against Streptococcus pyogenes MTCC 442 assessed as growth inhibition by broth microdilution method; type: functional
[5] = system: Aspergillus niger; experiment: Antimicrobial activity against Aspergillus niger MTCC 282 assessed as growth inhibition by broth microdilution method; type: functional
[6] = system: Plasmodium falciparum; experiment: Antimalarial activity against chloroquine-sensitive Plasmodium falciparum 3D7 assessed as inhibition of complete maturation into schizonts after 40 hr; type: functional; conditions: 3D7, 40 h
[7] = system: Staphylococcus aureus; experiment: Antimicrobial activity against Staphylococcus aureus MTCC 96 assessed as growth inhibition by broth microdilution method; type: functional
[8] = system: Klebsiella pneumoniae; experiment: Antimicrobial activity against Klebsiella pneumoniae MTCC 109 assessed as growth inhibition by broth microdilution method; type: functional
[9] = system: Mycobacterium tuberculosis; experiment: Antitubercular activity against Mycobacterium tuberculosis H37Rv MTCC 200 assessed as growth inhibition by L.J. MIC method; type: functional
[10] = system: Escherichia coli; experiment: Antimicrobial activity against Escherichia coli MTCC 443 assessed as growth inhibition by broth microdilution method; type: functional
[11] = system: Aspergillus clavatus; experiment: Antimicrobial activity against Aspergillus clavatus MTCC 1323 assessed as growth inhibition by broth microdilution method; type: functional
[12] = system: Vero; experiment: Cytotoxicity against Chlorocebus aethiops (African green monkey) Vero cells assessed as inhibition of cell viability at equal to and greater than MIC for Mycobacterium tuberculosis H37Rv after 72 hr by MTT assay; type: cell-based; conditions: chlorocebus sabaeus
[13] = system: Bacillus subtilis; experiment: Antimicrobial activity against Bacillus subtilis MTCC 441 assessed as growth inhibition by broth microdilution method; type: functional
[14] = system: Pseudomonas aeruginosa; experiment: Antimicrobial activity against Pseudomonas aeruginosa MTCC 1688 assessed as growth inhibition by broth microdilution method; type: functional
[15] = system: Candida albicans; experiment: Antimicrobial activity against Candida albicans MTCC 227 assessed as growth inhibition by broth microdilution method; type: functional

Row | SMILES | MIC [1] | inhibition at 6.25 µg/mL [2] | inhibition (Growth inhibition) [3] | MIC99 [4] | MIC99 [5] | MIC [6] | MIC99 [7] | MIC99 [8] | MIC [9] | MIC99 [10] | MIC99 [11] | Activity [12] | MIC99 [13] | MIC99 [14] | MIC99 [15]
1 | NC(=O)c1cnccn1 [PYRAZINAMIDE] | 6.25 µg/mL (≈ 50.8 µM) | 99% |  |  |  |  |  |  |  |  |  |  |  |  | 
2 | O=C1C(=O)N(CCSC(=S)N2CCN(c3ccc(Cl)c(Cl)c3)CC2)c2ccc([N+](=O)[O-])cc21 | 6.25 µg/mL (≈ 11.9 µM) | 99% | 99% | 100 µg/mL | 100 µg/mL | 0.072 µg/mL (≈ 0.137 µM) | 62.5 µg/mL | 100 µg/mL | 6.25 µg/mL (≈ 11.9 µM) | 100 µg/mL | 100 µg/mL | Non-toxic | 100 µg/mL | 62.5 µg/mL | 100 µg/mL
3 | O=C1C(=O)N(CCCSC(=S)N2CCN(c3ccc(Cl)c(Cl)c3)CC2)c2ccccc21 | > 6.25 µg/mL | 96% | 97% | 500 µg/mL | 500 µg/mL | 0.089 µg/mL (≈ 0.18 µM) | 500 µg/mL | 500 µg/mL | 200 µg/mL (≈ 404 µM) | 500 µg/mL | > 1000 µg/mL | Non-toxic | 100 µg/mL | 200 µg/mL | > 1000 µg/mL
4 | O=C1C(=O)N(CCCSC(=S)N2CCN(c3ccc(Cl)c(Cl)c3)CC2)c2ccc(Br)cc21 | 6.25 µg/mL (≈ 10.9 µM) | 99% | 94% | 100 µg/mL | 100 µg/mL | 0.25 µg/mL (≈ 0.436 µM) | 200 µg/mL | 250 µg/mL | 100 µg/mL (≈ 174 µM) | 200 µg/mL | 500 µg/mL | Non-toxic | 250 µg/mL | 100 µg/mL | 250 µg/mL
5 | O=C1C(=O)N(CCCSC(=S)N2CCN(c3ccc(Cl)c(Cl)c3)CC2)c2ccc([N+](=O)[O-])cc21 | 6.25 µg/mL (≈ 11.6 µM) | 99% | 96% | 250 µg/mL | 250 µg/mL | 0.5 µg/mL (≈ 0.927 µM) | 500 µg/mL | 100 µg/mL | 100 µg/mL (≈ 185 µM) | 100 µg/mL | 200 µg/mL | Non-toxic | 250 µg/mL | 200 µg/mL | 500 µg/mL
6 | O=C1C(=O)N(CCSC(=S)N2CCN(c3ccc(Cl)c(Cl)c3)CC2)c2ccc(Cl)cc21 | > 6.25 µg/mL | 98% | 96% | 250 µg/mL | > 1000 µg/mL | 0.061 µg/mL (≈ 0.118 µM) | 500 µg/mL | 250 µg/mL | 100 µg/mL (≈ 194 µM) | 500 µg/mL | 500 µg/mL | Non-toxic | 100 µg/mL | 250 µg/mL | > 1000 µg/mL
7 | O=C(O)c1cn(C2CC2)c2cc(N3CCNCC3)c(F)cc2c1=O [CIPROFLOXACIN] |  |  |  | ≤ 50 µg/mL |  |  | ≤ 25 µg/mL | ≤ 25 µg/mL |  | ≤ 25 µg/mL |  |  | ≤ 50 µg/mL | ≤ 25 µg/mL | 
8 | CO[C@H]1/C=C/O[C@@]2(C)Oc3c(C)c(O)c4c(O)c(c(/C=N/N5CCN(C)CC5)c(O)c4c3C2=O)NC(=O)/C(C)=C\C=C\[C@H](C)[C@H](O)[C@@H](C)[C@@H](O)[C@@H](C)[C@H](OC(C)=O)[C@@H]1C [RIFAMPIN] | 0.25 µg/mL (≈ 0.304 µM) | 99% |  |  |  |  |  |  |  |  |  |  |  |  | 
9 | O=C1C(=O)N(CCSC(=S)N2CCN(c3ccc(Cl)c(Cl)c3)CC2)c2ccc(Br)cc21 | 6.25 µg/mL (≈ 11.2 µM) | 99% | 99% | 62.5 µg/mL | 200 µg/mL | 0.052 µg/mL (≈ 0.093 µM) | 250 µg/mL | 250 µg/mL | 6.15 µg/mL (≈ 11 µM) | 100 µg/mL | 500 µg/mL | Non-toxic | 250 µg/mL | 62.5 µg/mL | 200 µg/mL
10 | O=C1C(=O)N(CCCSC(=S)N2CCN(c3ccc(Cl)c(Cl)c3)CC2)c2ccc(F)cc21 | 6.25 µg/mL (≈ 12.2 µM) | 99% | 98% | 250 µg/mL | 200 µg/mL | 0.092 µg/mL (≈ 0.18 µM) | 500 µg/mL | 100 µg/mL | 6.25 µg/mL (≈ 12.2 µM) | 250 µg/mL | 250 µg/mL | Non-toxic | 500 µg/mL | 250 µg/mL | 500 µg/mL

Reference: ChEMBL document CHEMBL3044829, “New carbodithioate derivatives: synthesis, characterization, and in vitro antibacterial, antifungal, antitubercular, and antimalarial activity” (Med Chem Res, 2013)
